Results reported in publication PMC7232187, “High-Throughput Screening of the ReFRAME Library Identifies Potential Drug Repurposing Candidates for Trypanosoma cruzi” (Microorganisms, 2020).
Like-named read-outs stand apart in the source and are kept apart here.

Tests used:
[1] = system: CA-I/72 T. cruzi; test: Phenotypic high-content imaging assay, intracellular T. cruzi amastigotes in C2C12 host cells; format: cell-based, Trypanosoma cruzi; settings: for Selectivity Index (SI): SI = CC50 (C2C12) / EC50 (T. cruzi CA-I/72); for EC50: Trypanosoma cruzi, read-out: EC50 CA-I/72 T. cruzi
Protocol: C2C12 mouse myoblasts (ATCC CRL-1772) and CA-I/72 T. cruzi (kindly donated by J. Dvorak, NIH) were cultured in Dulbecco’s Modified Eagle Medium (Invitrogen, Carlsbad, CA, USA), supplemented with 5% fetal bovine serum (Sigma Aldrich, St. Louis, MO, USA) and 1% penicillin-streptomycin (Invitrogen, Carlsbad, CA, USA) at 37 °C and 5% CO2 essentially as described [11]. Passaging of CA-I/72 T. cruzi was conducted weekly via co-culture with C2C12 host cells.
Compounds from the ReFRAME library, benznidazole (Sigma Alderich, St. Louis, MO, USA) and DMSO (Sigma Alderich, St. Louis, MO, USA), were transferred to black 1536-well plates (Greiner Bio One, Kremsmünster, Austria) with clear bottoms using an Acoustic Transfer System (ATS) instrument (EDC Biosystems, Fremont, CA, USA). C2C12 cells were seeded at a density of 100 cells per well, and CA-I/72 T. cruzi parasites were seeded at a density of 1500 cells per well, using a Multidrop Combi liquid handler (Thermo Scientific, Waltham, MA, USA). Plates were incubated at 37 °C and 5% CO2 for 72 h in humidified trays to reduce edge effect. Following this incubation, paraformaldehyde (4% final concentration) in 1× phosphate buffered saline (PBS, Invitrogen, 10010023) was used to fix the cells for 1 h. The cells were then subsequently treated with 5 µg/mL DAPI staining solution (Sigma Aldrich, D9542) for 1 h. Next, the plates were imaged using an ImageXpress Micro XLS automated high-content imager (Molecular Devices, San Jose, CA, USA), using the 10× fluorescence objective. Images were analyzed automatically using a custom image analysis module [9, 11].
Compounds from the ReFRAME library were pre-spotted on 1536 clear-bottom black well plates in 100% dimethylsulfoxide (DMSO) for a final concentration of 10 µM in 10 µL final volume (and 0.1% DMSO final concentration). C2C12 mouse myoblasts and CA-I/72 strain T. cruzi trypomastigotes were added to the plate in a 1:15 infection ratio and incubated for 72 h at 37 °C and 5% CO2. Cells were then fixed with 4% paraformaldehyde (final concentration), and stained with 5 µg/mL of 4’,6-diamidino-2-phenylindole (DAPI) to highlight the nuclei from the host cells and parasites. Using an ImageXpress Micro XLS automated microscope (10× magnification setting), fluorescence images of C2C12 and T. cruzi amastigote nuclei were acquired for each well, and the number of host cell nuclei and amastigote nuclei were automatically determined using a custom image analysis module as previously described [9, 10, 11] […] Parasite amastigote nuclei were selectively counted over trypomastigote nuclei, via distance gating of parasitic nuclei distance from host cell nuclei in the microscopy images.

[2] = Host cell toxicity by nuclei counting in the phenotypic high-content imaging assay; settings: mouse
Protocol: C2C12 mouse myoblasts (ATCC CRL-1772) and CA-I/72 T. cruzi (kindly donated by J. Dvorak, NIH) were cultured in Dulbecco’s Modified Eagle Medium (Invitrogen, Carlsbad, CA, USA), supplemented with 5% fetal bovine serum (Sigma Aldrich, St. Louis, MO, USA) and 1% penicillin-streptomycin (Invitrogen, Carlsbad, CA, USA) at 37 °C and 5% CO2 essentially as described. Passaging of CA-I/72 T. cruzi was conducted weekly via co-culture with C2C12 host cells.
Compounds from the ReFRAME library, benznidazole (Sigma Alderich, St. Louis, MO, USA) and DMSO (Sigma Alderich, St. Louis, MO, USA), were transferred to black 1536-well plates (Greiner Bio One, Kremsmünster, Austria) with clear bottoms using an Acoustic Transfer System (ATS) instrument (EDC Biosystems, Fremont, CA, USA). C2C12 cells were seeded at a density of 100 cells per well, and CA-I/72 T. cruzi parasites were seeded at a density of 1500 cells per well, using a Multidrop Combi liquid handler (Thermo Scientific, Waltham, MA, USA). Plates were incubated at 37 °C and 5% CO2 for 72 h in humidified trays to reduce edge effect. Following this incubation, paraformaldehyde (4% final concentration) in 1× phosphate buffered saline (PBS, Invitrogen, 10010023) was used to fix the cells for 1 h. The cells were then subsequently treated with 5 µg/mL DAPI staining solution (Sigma Aldrich, D9542) for 1 h. Next, the plates were imaged using an ImageXpress Micro XLS automated high-content imager (Molecular Devices, San Jose, CA, USA), using the 10× fluorescence objective. Images were analyzed automatically using a custom image analysis module.
Compounds from the ReFRAME library were pre-spotted on 1536 clear-bottom black well plates in 100% dimethylsulfoxide (DMSO) for a final concentration of 10 µM in 10 µL final volume (and 0.1% DMSO final concentration). C2C12 mouse myoblasts and CA-I/72 strain T. cruzi trypomastigotes were added to the plate in a 1:15 infection ratio and incubated for 72 h at 37 °C and 5% CO2. Cells were then fixed with 4% paraformaldehyde (final concentration), and stained with 5 µg/mL of 4’,6-diamidino-2-phenylindole (DAPI) to highlight the nuclei from the host cells and parasites. Using an ImageXpress Micro XLS automated microscope (10× magnification setting), fluorescence images of C2C12 and T. cruzi amastigote nuclei were acquired for each well, and the number of host cell nuclei and amastigote nuclei were automatically determined using a custom image analysis module as previously described (Figure 1). Parasite amastigote nuclei were selectively counted over trypomastigote nuclei, via distance gating of parasitic nuclei distance from host cell nuclei in the microscopy images.
Infection levels were calculated as a ratio of the number of T. cruzi amastigotes per C2C12 host cell, as determined by nuclei counting. Compound toxicity was determined by dividing the number of host cell nuclei in a drug-treated well by the average of the vehicle controls. For both infection ratios and cell viability ratios, values were normalized to the vehicle controls to determine percent activity and toxicity, respectively. Control wells containing uninfected C2C12 cells, infected C2C12 cells with 0.1% DMSO, and infected C2C12 cells with 0.1% DMSO and 50 µM benznidazole were prepared in each plate for data normalization. […] Hit selection cutoffs for the primary screen were set at 70% antiparasitic activity (70% parasite reduction compared to untreated controls) and 50% host cell viability at 10 µM compound compared to untreated controls (represents approximately three standard deviations from the average of the untreated controls).

[3] = intracellular amastigotes in C2C12, 72 h, 10-point 3-fold dose response in duplicate, +/- SE
[4] = C2C12 mouse myoblasts co-cultured with CA-I/72 T. cruzi

Row | SMILES | Selectivity Index (SI) [1] | EC50 [1, 3] | CC50 at 72 h [2, 4] | CC50 at 72 h [2] | EC50 ([1]; C2C12, 72 h)
1 | COc1ccccc1N1CCN(CCCCn2c(=O)sc3cc(CCN4CCC(C(=O)c5ccc(F)cc5)CC4)ccc32)CC1 [3-[4-[4-(2-Methoxyphenyl)piperazine-1-yl]butyl]-6-[2-[4-(4-fluorobenzoyl)piperidine-1-yl]ethyl]benzothiazole-2(3H)-one] | 145 | 22 nM | 3190 nM | – | –
2 | C=C(NNC(=S)NNC(=S)Nc1ccccc1Cl)c1ccccn1 [348U87, 2-acetylpyridine 5-[(2-chloroanilino)-thiocarbonyl]-thiocarbonohydrazone] | 1294 | 0.63 nM | 815 nM | – | –
3 | C=CC(=O)N1CC[C@@H](Oc2nc(Nc3ccc(N4CCC(N5CCN(C)CC5)CC4)cc3)c(C(N)=O)nc2CC)C1 [ASP-8273, naquotinib] | 191 | 2.7 nM | 515 nM | – | –
4 | O=P(O)(O)C(NC1CCCCCC1)P(=O)(O)O [Incadronate Disodium, incadronate disodium] | >20 | 480 nM | – | > 10000 nM | –
5 | COc1cc2c3c(n(CCCNCCO)c(=O)c2cc1OC)-c1cc2c(cc1C3=O)OCO2 [NSC-706744] | 214 | – | – | 94 nM | 0.44 nM
6 | N#Cc1ccc(Cn2cncc2CN2CCN(c3cccc(Cl)c3)C(=O)C2)cc1Oc1ccccc1 [Prenyl-IN-1] | 10 | 18 nM | 182 nM | – | –
7 | Cc1cccc2nc3cccc(C(=O)NCCNCCNCCNC(=O)c4cccc5nc6cccc(C)c6nc45)c3nc12 [XR 5944] | 13 | 3.5 nM | 46 nM | – | –
